{"source": "patent US8268854B2", "about": "“Aza-beta-carbolines and methods of using same” (The UWM Research Foundation, Inc., priority 2008, dated 2012)", "key": {"Dopamine receptor D4": {"target": "T1, Dopamine receptor D4 (Homo sapiens, UniProt P21917)", "T1 construct": "expressed in transfected cells", "T1 sequence (P21917 1-419)": "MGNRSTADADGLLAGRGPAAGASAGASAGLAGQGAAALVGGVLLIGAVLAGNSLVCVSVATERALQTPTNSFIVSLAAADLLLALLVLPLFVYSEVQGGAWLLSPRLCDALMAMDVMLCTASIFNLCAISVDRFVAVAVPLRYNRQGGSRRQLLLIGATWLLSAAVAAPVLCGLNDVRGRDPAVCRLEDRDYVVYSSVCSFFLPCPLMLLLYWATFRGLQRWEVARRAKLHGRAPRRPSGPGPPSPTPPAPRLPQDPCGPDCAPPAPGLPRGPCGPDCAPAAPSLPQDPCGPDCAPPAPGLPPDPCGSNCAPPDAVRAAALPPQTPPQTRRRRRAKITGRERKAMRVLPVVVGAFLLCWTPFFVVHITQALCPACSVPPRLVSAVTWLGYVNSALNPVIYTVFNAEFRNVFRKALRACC", "experiment": "PDSP secondary radioligand binding assay", "protocol": "(§1) Primary and secondary radioligand binding assays are performed. In general, the primary assay is run at very high ligand (compound) concentration as a broad screen to determine whether a compound binds to a particular receptor. If greater than 50% inhibition at 10 μM (high concentration of compound) at a particular receptor is determined, a secondary assay is performed on that receptor. Data from the secondary assay is the binding affinity (Ki value).\nThis assay is used to test binding to receptors such as the serotonin receptors: 5-HT1A, 5-HT1B, 5-HT1D, 5-HT1E, 5-HT2A, 5-HT2B, 5-HT2C, 5-HT3, 5-HT5A, 5-HT6 and 5-HT7. The protocol is adapted from Roth et al. J. Pharmacol. Exp. Ther. 1986, 238, 480-485 and Roth et al. J. Pharmacol. Exp. Ther. 1994, 268, 1403-1410. The assay buffer is Standard Binding Buffer (50 mM Tris-HCl, 10 mM MgCl2, 0.1 mM EDTA, pH 7.4). The membrane fraction source is transiently or stably transfected cell lines (e.g., HEK293, COS, CHO, NIH3T3).\nA solution of the compound to be tested is prepared as a 1 mg/mL stock in Standard Binding Buffer or DMSO according to its solubility. A similar stock of a reference compound (positive control) is also prepared.\nRadioligand (see Table 41) is diluted to five times the assay concentration (see Table 21) in Standard Binding Buffer. […]\nThe 250 μL reactions are incubated at room temperature and shielded from light (to prevent photolysis of light-sensitive ligands) for 1.5 hours, then harvested by rapid filtration onto Whatman GF/B glass fiber filters pre-soaked with 0.3% polyethyleneimine using a 96-well Brandel harvester. […] The tubes are capped, labeled, and counted by liquid scintillation counting. For higher throughput assays, bound radioactivity is harvested onto 0.3% polyethyleneimine-treated, 96-well filter mats using a 96-well Filtermate harvester. The filter mats are dried, then scintillant is melted onto the filters, and the radioactivity retained on the filters is counted in a Microbeta scintillation counter. […]"}, "Serotonin receptor 5ht1b": {"target": "T2, Serotonin receptor 5ht1b (Homo sapiens, UniProt P28222)", "T2 construct": "expressed in transfected cells", "T2 sequence (P28222 whole entry)": "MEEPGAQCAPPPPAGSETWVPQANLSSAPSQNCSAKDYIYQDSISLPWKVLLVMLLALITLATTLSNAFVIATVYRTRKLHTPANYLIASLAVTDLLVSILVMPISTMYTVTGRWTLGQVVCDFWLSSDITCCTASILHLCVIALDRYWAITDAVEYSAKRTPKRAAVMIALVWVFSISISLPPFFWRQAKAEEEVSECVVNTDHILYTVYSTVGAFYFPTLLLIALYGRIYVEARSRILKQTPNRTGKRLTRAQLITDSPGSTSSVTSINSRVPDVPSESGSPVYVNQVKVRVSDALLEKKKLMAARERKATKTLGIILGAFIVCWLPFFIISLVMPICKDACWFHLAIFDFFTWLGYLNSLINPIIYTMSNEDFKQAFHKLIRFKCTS", "experiment": "PDSP primary radioligand binding assay", "conditions": "compound 10 μM", "protocol": "as §1\n(§2) A solution of the compound to be tested is prepared as a 1 mg/ml stock in Standard Binding Buffer or dimethyl sulfoxide (DMSO) according to its solubility. A similar stock of a reference compound (positive control) is also prepared.\n(§3) Radioligand (radioligands are presented in Table 39) is diluted to five times the assay concentration (assay concentrations are presented in Table 39) in Standard Binding Buffer. Typically, the assay concentration of radioligand is a value between one half the KD and the KD of a particular radioligand at its target. Aliquots (50 μL) of radioligand are dispensed into the wells of a 96-well plate (see FIG. 11) containing 100 μL of Standard Binding Buffer (Table 40). Then, duplicate 50 μL aliquots of the test and reference compound dilutions are added (see FIG. 11). According to FIG. 11, increasing concentrations (from left to right) of reference or test compound (diluted in buffer) are added (50 μL aliquots, in duplicate) from 5× stock solutions to wells containing 50 μL of 5× radioligand (fixed concentration, prepared in buffer) and 100 μL of buffer. Finally, 50 μL of receptor-containing membrane homogenate (5× suspension in buffer) are added to achieve a final assay volume of 250 μL. Final concentrations of reference or test compound are listed above the columns in FIG. 11.\n(§4) Finally, crude membrane fractions of cells expressing recombinant target (prepared from 10 cm plates by harvesting phosphate buffered saline (PBS)-rinsed monolayers, resuspending and lysing in chilled, hypotonic 50 mM Tris-HCl, pH 7.4, centrifuging at 20,000×g, decanting the supernatant and storing at −80° C.; typically, one 10 cm plate provides sufficient material for 24 wells) are resuspended in 3 mL of chilled Standard Binding Buffer and homogenized by several passages through a 26 gauge needle, and then 50 μL are dispensed into each well.\n(§5) The 250 μL reactions are incubated at room temperature and shielded from light (to prevent photolysis of light-sensitive ligands) for 1.5 hours, then harvested by rapid filtration onto Whatman GF/B glass fiber filters pre-soaked with 0.3% polyethyleneimine using a 96-well Brandel harvester. Four rapid 500 μL washes are performed with chilled Standard Binding Buffer to reduce non-specific binding. Filters are placed in 6 mL scintillation tubes and allowed to dry overnight. The next day, 4 mL of EcoScint scintillation cocktail (National Diagnostics) are added to each tube. The tubes are capped, labeled, and counted by liquid scintillation counting. For higher throughput assays, bound radioactivity is harvested onto 0.3% polyethyleneimine-treated, 96-well filter mats using a 96-well Filtermate harvester. The filter mats are dried, then scintillant is melted onto the filters, and the radioactivity retained on the filters is counted in a Microbeta scintillation counter.\n(§6) Raw data (dpm) representing total radioligand binding (i.e., specific+non-specific binding) are plotted as a function of the logarithm of the molar concentration of the competitor (i.e., test or reference compound). […]"}, "SERT transporter": {"target": "T3, SERT transporter (Homo sapiens, UniProt P31645)", "T3 construct": "expressed in transfected cells", "T3 sequence (P31645 whole entry)": "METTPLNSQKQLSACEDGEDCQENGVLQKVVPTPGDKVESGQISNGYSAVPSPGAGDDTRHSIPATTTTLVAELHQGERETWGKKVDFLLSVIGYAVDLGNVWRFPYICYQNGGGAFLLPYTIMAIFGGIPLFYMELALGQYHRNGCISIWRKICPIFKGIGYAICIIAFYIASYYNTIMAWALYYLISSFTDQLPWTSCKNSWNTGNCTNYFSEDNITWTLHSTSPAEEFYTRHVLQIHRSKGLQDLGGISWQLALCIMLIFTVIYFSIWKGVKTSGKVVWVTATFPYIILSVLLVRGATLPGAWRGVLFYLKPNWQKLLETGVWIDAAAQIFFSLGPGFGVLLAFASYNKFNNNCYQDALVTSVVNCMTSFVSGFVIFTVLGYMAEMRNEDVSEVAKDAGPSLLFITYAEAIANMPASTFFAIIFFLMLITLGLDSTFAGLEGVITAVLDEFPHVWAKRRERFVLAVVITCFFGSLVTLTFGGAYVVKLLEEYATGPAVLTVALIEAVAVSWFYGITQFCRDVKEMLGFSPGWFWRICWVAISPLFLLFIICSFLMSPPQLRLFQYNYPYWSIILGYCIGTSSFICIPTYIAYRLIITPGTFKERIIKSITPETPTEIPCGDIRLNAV", "experiment": "PDSP primary radioligand binding assay", "conditions": "compound 10 μM, n=4, read-out: mean percentage inhibition, SERT transporter", "protocol": "as §1, §2, §3, §4, §5, §6"}}, "note": "Where a name gives a salt, the structure may show the parent alone.", "data": [{"smiles": "CCCOc1cc2c(cn1)[nH]c1ccncc12", "note": "[Compound 2, 8-Propoxypyridino[4′,3′-5,4]pyrrolo[3,2-c]pyridine hydrochloride]", "values": [{"measurement": "Ki", "setting": "Dopamine receptor D4", "value": 7.5, "unit": "µM"}, {"measurement": "mean percentage inhibition, Serotonin receptor 5ht1b", "setting": "Serotonin receptor 5ht1b; n=4, hydrochloride, 10 µM", "value": 47, "unit": "%"}, {"measurement": "inhibition at 10 µM", "setting": "Serotonin receptor 5ht1b; n=4, read-out: mean percentage inhibition, Serotonin receptor 5ht1b", "value": "< 50", "unit": "%"}, {"measurement": "inhibition at 10 µM", "setting": "SERT transporter", "value": 22.1, "unit": "%"}]}]}
